In patent publication US10597388B2, “Pyridazinone herbicides” (FMC CORPORATION, priority 2014, dated 2020):
Like-named read-outs stand apart in the source and are kept apart here.

How the values were obtained:
Format in all cases: in vivo
[1] = system: foxtail, giant (giant foxtail, Setaria faberii); assay: Test A greenhouse herbicide test, pre- and postemergence; settings: Setaria faberi, 240 h; for pest or weed control at 125 g/ha: 125 g ai/ha; for pest or weed control at 500 g/ha: 500 g ai/ha, 0 to 100 scale
Summary of the method: (§1)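 Seeds in loam–sand blend received a preemergence directed soil spray; plants at 2–10 cm, one- to two-leaf stage, received postemergence sprays. Compounds in a non-phytotoxic solvent with surfactant. After about 10 d in a greenhouse, injury rated visually versus untreated controls on a 0–100 scale (100 = complete control).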

[2] = system: pigweed (Amaranthus retroflexus); assay: as above; settings: Amaranthus retroflexus, 240 h; for pest or weed control at 125 g/ha: 125 g ai/ha; for pest or weed control at 500 g/ha: 500 g ai/ha, 0 to 100 scale
Summary of the method: as §1

[3] = system: wheat (Triticum aestivum); assay: as above; settings: Triticum aestivum, 240 h; for plant injury at 125 g/ha: 125 g ai/ha; for plant injury at 500 g/ha: 500 g ai/ha, 0 to 100 scale
Summary of the method: as §1

[4] = system: morningglory (Ipomoea coccinea); assay: Test C greenhouse herbicide test, pre- and postemergence
Description: (§2) Seeds of plant species selected from blackgrass (Alopecurus myosuroides), ryegrass, Italian (Italian ryegrass, Lolium multiflorum), wheat (winter wheat, Triticum aestivum), galium (catchweed bedstraw, Galium aparine), corn (Zea mays), large crabgrass, large (large crabgrass, Digitaria sanguinalis), foxtail, giant (giant foxtail, Setaria faberii), johnsongrass (Sorghum halepense), lambsquarters (Chenopodium album), morningglory (Ipomoea coccinea), nutsedge, yellow (yellow nutsedge, Cyperus esculentus), pigweed (Amaranthus retroflexus), ragweed (common ragweed, Ambrosia elatior), soybean (Glycine max), barnyardgrass (Echinochloa crus-galli), oilseed rape (Brassica napus), waterhemp (common waterhemp, Amaranthus rudis), and velvetleaf (Abutilon theophrasti) were planted into a blend of loam soil and sand and treated preemergence with test chemicals formulated in a non-phytotoxic solvent mixture which included a surfactant.
(§3) At the same time, plants selected from these crop and weed species and also chickweed (common chickweed, Stellaria media), kochia (Kochia scoparia), and oat, wild (wild oat, Avena fatua), were planted in pots containing Redi-Earth® planting medium (Scotts Company, 14111 Scottslawn Road, Marysville, Ohio 43041) comprising spaghnum peat moss, vermiculite, wetting agent and starter nutrients and treated with postemergence applications of test chemicals formulated in the same manner. Plants ranged in height from 2 to 18 cm (1- to 4-leaf stage) for postemergence treatments. Treated plants and controls were maintained in a greenhouse for 13 to 15 d, after which time all species were compared to controls and visually evaluated. Plant response ratings, summarized in Table C, are based on a scale of 0 to 100 where 0 is no effect and 100 is complete control. A dash (-) response means no test result.

[5] = system: blackgrass (Alopecurus myosuroides); assay: as above
Description: as §2, §3

[6] = system: pigweed (Amaranthus retroflexus); assay: as above
Description: as §2, §3

[7] = system: corn (Zea mays); assay: as above
Description: as §2, §3

[8] = system: velvetleaf (Abutilon theophrasti); assay: as above
Description: as §2, §3

[9] = system: ryegrass, Italian (Italian ryegrass, Lolium multiflorum); assay: as above
Description: as §2, §3

[10] = post-emergence, Postemergence, visual rating after approx. 10 d, 0 to 100 scale (0 no effect, 100 complete control), read-out: Plant response rating, Foxtail, Giant
[11] = post-emergence, Postemergence, 0 is no effect, 100 is complete control, read-out: Foxtail, Giant plant response rating
[12] = pre-emergence, Preemergence, 0 to 100 scale where 0 is no effect and 100 is complete control, read-out: Foxtail, Giant plant response rating
[13] = pre-emergence, Preemergence, 0 no effect, 100 complete control, read-out: Plant response rating, Foxtail, Giant
[14] = post-emergence, Postemergence, visual rating after approx. 10 d, 0 to 100 scale (0 no effect, 100 complete control), read-out: Plant response rating, Pigweed
[15] = post-emergence, Postemergence, 0 is no effect, 100 is complete control, read-out: Pigweed plant response rating
[16] = pre-emergence, Preemergence, 0 to 100 scale where 0 is no effect and 100 is complete control, read-out: Pigweed plant response rating
[17] = pre-emergence, Preemergence, 0 no effect, 100 complete control, read-out: Plant response rating, Pigweed
[18] = post-emergence, Postemergence, visual rating after approx. 10 d, 0 to 100 scale (0 no effect, 100 complete control), read-out: Plant response rating, Wheat
[19] = post-emergence, Postemergence, 0 is no effect, 100 is complete control, read-out: Wheat plant response rating
[20] = pre-emergence, Preemergence, 0 to 100 scale where 0 is no effect and 100 is complete control, read-out: Wheat plant response rating
[21] = pre-emergence, Preemergence, 0 no effect, 100 complete control, read-out: Plant response rating, Wheat
[22] = Postemergence, 31 g ai/ha, 0 to 100 scale (0 no effect, 100 complete control)
[23] = Postemergence, 125 g ai/ha, scale 0 to 100, 0 is no effect, 100 is complete control
[24] = Postemergence, 250 g ai/ha, scale 0 to 100, 0 no effect, 100 complete control, 13 to 15 d
[25] = Preemergence, 31 g ai/ha, scale 0 to 100, 0 is no effect, 100 is complete control
[26] = Preemergence, 62 g ai/ha, scale 0 to 100, 0 is no effect, 100 is complete control
[27] = Preemergence, 125 g ai/ha, scale 0 to 100, 0 is no effect, 100 is complete control
[28] = Preemergence, 250 g ai/ha, scale 0 to 100, 0 no effect, 100 complete control
[29] = postemergence, 62 g ai/ha, scale 0 to 100, 0 no effect, 100 complete control

SMILES: Cc1cc(C)c2sc(C)c(-c3c(O)c(C)nn(C)c3=O)c2c1 [Compound 2, 5-hydroxy-2,6-dimethyl-4-(2,5,7-trimethylbenzo[b]thien-3-yl)-3(2H)-pyridazinone]
- pest or weed control at 125 g/ha [1, 10]: 80%
- pest or weed control at 500 g/ha [1, 11]: 90%
- pest or weed control at 125 g/ha [1, 12]: 100%
- pest or weed control at 500 g/ha [1, 13]: 100%
- pest or weed control at 125 g/ha [2, 14]: 100%
- pest or weed control at 500 g/ha [2, 15]: 100%
- pest or weed control at 125 g/ha [2, 16]: 100%
- pest or weed control at 500 g/ha [2, 17]: 100%
- plant injury at 125 g/ha [3, 18]: 20%
- plant injury at 500 g/ha [3, 19]: 20%
- plant injury at 125 g/ha [3, 20]: 0%
- plant injury at 500 g/ha [3, 21]: 0%
- Morningglory plant response rating [4, 22]: 100
- Plant response rating, Morningglory [4, 23]: 100
- Plant response rating, Morningglory [4, 24]: 100
- Plant response rating, Morningglory [4, 25]: 98
- Plant response rating, Morningglory [4, 26]: 100
- Plant response rating, Morningglory [4, 27]: 98
- Morningglory plant response rating [4, 28]: 100
- Morningglory plant response rating [4, 29]: 100
- Blackgrass plant response rating [5, 22]: 45
- Plant response rating, Blackgrass [5, 23]: 85
- Plant response rating, Blackgrass [5, 24]: 80
- Plant response rating, Blackgrass [5, 25]: 85
- Plant response rating, Blackgrass [5, 26]: 90
- Plant response rating, Blackgrass [5, 27]: 95
- Blackgrass plant response rating [5, 28]: 95
- Blackgrass plant response rating [5, 29]: 65
- Pigweed plant response rating [6, 22]: 80
- Plant response rating, Pigweed [6, 23]: 90
- Plant response rating, Pigweed [6, 24]: 98
- Plant response rating, Pigweed [6, 25]: 100
- Plant response rating, Pigweed [6, 26]: 100
- Plant response rating, Pigweed [6, 27]: 100
- Pigweed plant response rating [6, 28]: 100
- Pigweed plant response rating [6, 29]: 60
- Corn plant response rating [7, 22]: 0
- Plant response rating, Corn [7, 23]: 5
- Plant response rating, Corn [7, 24]: 10
- Plant response rating, Corn [7, 25]: 0
- Plant response rating, Corn [7, 26]: 0
- Plant response rating, Corn [7, 27]: 0
- Corn plant response rating [7, 28]: 10
- Corn plant response rating [7, 29]: 5
- Velvetleaf plant response rating [8, 22]: 100
- Plant response rating, Velvetleaf [8, 23]: 100
- Plant response rating, Velvetleaf [8, 24]: 100
- Plant response rating, Velvetleaf [8, 26]: 95
- Plant response rating, Velvetleaf [8, 27]: 100
- Velvetleaf plant response rating [8, 28]: 100
- Velvetleaf plant response rating [8, 29]: 100
- Ryegrass, Italian plant response rating [9, 22]: 60
- Plant response rating, Ryegrass, Italian [9, 23]: 85
- Plant response rating, Ryegrass, Italian [9, 24]: 90
- Plant response rating, Ryegrass, Italian [9, 25]: 95
- Plant response rating, Ryegrass, Italian [9, 26]: 98
- Plant response rating, Ryegrass, Italian [9, 27]: 98
- Ryegrass, Italian plant response rating [9, 28]: 98
- Ryegrass, Italian plant response rating [9, 29]: 75

SMILES: Cc1nn(C)c(=O)c(-c2c(C)oc3cccc(C)c23)c1O [Compound 8, 4-(2,4-dimethyl-3-benzofuranyl)-5-hydroxy-2,6-dimethyl-3(2H)-pyridazinone]
- pest or weed control at 125 g/ha [1, 10]: 0%
- pest or weed control at 500 g/ha [1, 11]: 30%
- pest or weed control at 125 g/ha [1, 12]: 40%
- pest or weed control at 500 g/ha [1, 13]: 60%
- pest or weed control at 125 g/ha [2, 14]: 70%
- pest or weed control at 500 g/ha [2, 15]: 80%
- pest or weed control at 125 g/ha [2, 16]: 70%
- pest or weed control at 500 g/ha [2, 17]: 100%
- plant injury at 125 g/ha [3, 18]: 0%
- plant injury at 500 g/ha [3, 19]: 0%
- plant injury at 125 g/ha [3, 20]: 0%
- plant injury at 500 g/ha [3, 21]: 0%
